The test system of series [1] is Jbo/+ mice. The series can be described thus: Click-evoked Auditory Brain Stem response (ABR) change in drug-treated Junbo (Jbo/+) mice, chronic otitis media model. The format is in vivo, mouse. The protocol: (§1) Drug treatment, ABR and analysis of inflammation. […] The sham
(§2) Jbo/+ group was matched for age, gender and pre-trial ABR (30-60 dB) and received vehicle alone. A click-evoked ABR (Zheng, Q. Y., et al. (1999) Hearing Res. 130, 94-107) was measured at the beginning and end of the trial (or after 3 wk in the 50 mg/kg PTK787 trial). For ABR with recovery, anesthesia was induced by i.p. injection with a mixture of 10 mg/kg xylazine and 100 mg/kg ketamine and was reversed by 5 mg/kg atipamezole hydrochloride. Histology was assessed at 4 wk in both PTK787 trials.
(§3) Statistics. Student t-tests or Mann Whitney U tests (for ABR measurements where interval data was in 5 dB increments) were performed and test values p<0.05 were considered significant. Percentages were arcsine transformed before using t-tests. In the drug trials, 1-tailed tests were used compare drug and sham-treated groups, otherwise 2-tailed tests were used.

In series [2] the test system is Jbo/+ mice middle ear mucosa. The experiment in a line: Histological analysis of inflammation in middle ear mucosa of drug-treated Jbo/+ mice. The series is classed as in vivo, mouse. The protocol:
as §1, §2
Image capture and analysis. Digital images were captured on an Olympus BX51 microscope using ×20, ×40 or ×60 Plan Achromat objectives with neutral density filter, on a ColorView Soft Imaging System software using automatic exposures. In the drug trials, H&E stained sections for image analysis were scanned at ×400 magnification on a Nanozoomer digital pathology system (Hamamatsu Photonics). Eardrum thickness and the thickness of the mucosa along its medial surface (avoiding the cochlea and the region adjacent to the opening of the Eustachian tube) were averaged from 5 measurements. The number of capillaries and lymphatic vessels and their respective diameters were measured in a standardized 1000 μm length of medial mucosa. The treatment and genotype were blinded from the assessor when making the morphological measurements.
as §3

Series [3] concerns WT mice. The experiment in a line: Click-evoked ABR change in drug-treated WT littermate mice. The format is in vivo, mouse. The protocol: as §1, §2, §3
Series [4] has as its system mice. The conditions noted are these: mouse, in vivo, po.
Excerpt: as §1

[5] abbreviates: both 50 mg/kg and 75 mg/kg trials, 4 wk, vs sham.

The values below come from patent publication US20130078260A1, “COMPOUNDS TARGETING THE VEGF AND/OR HIF PATHWAY SUCH AS SORAFENIB OR VATALANIB FOR USE IN THE TREATMENT OF OTITIS MEDIA” (MEDICAL RESEARCH COUNCIL, priority 2010, published 2013).

The structures appear in SMILES notation. Like-named read-outs stand apart in the source and are kept apart here. Marks after values point to notes of the source that are not given here.

`CO[C@H]1/C=C\C=C(/C)C(=O)NC2=CC(=O)C(NCCN(C)C)=C(C[C@@H](C)C[C@H](OC)[C@H](O)[C@@H](C)/C=C(\C)[C@@H]1OC(N)=O)C2=O` [17-DMAG, 17-dimethylaminoethylamino-17-demethoxy-geldanamycin]: in series [1] (Jbo/+ mice, 10 mg/kg, 28 d treatment, vs sham (FIG. 6E)), the “Effect on hearing loss” value is given as “moderated hearing loss”.

For the compound `CNC(=O)c1cc(Oc2ccc(NC(=O)Nc3ccc(Cl)c(C(F)(F)F)c3)cc2)ccn1` [BAY 43-9006], the “ΔABR (dB) Jbo/+ drug” value in series [1] (Jbo/+ mice, 30 mg/kg, 15 days, oral gavage once a day, mean ± SEM (n)) is recorded as 0.9 ± 1.5 (11)^e dB. In addition, the “Effect on hearing loss” value in series [1] (Jbo/+ mice, treatment for 2 wk, vs sham control) is “reduced hearing loss”. In series [2] (2 wk trial, n=11, sham 14.2±0.9 μm, P=0.0072), this compound registered a Lymphatic vessel dilation of 9.9±1.0 μm. Further, the “ΔABR (dB) WT” value in series [3] (30 mg/kg, 15 days, mean ± SEM (n)) is given as −2.0 ± 1.2 (5) dB. Besides, the “Tolerability / adverse signs” value in series [4] (Junbo (Jbo/+) mutant and WT, 2 wk) is reported as “not as well tolerated as PTK787”; in series [4], “mice suddenly became piloerect”.

For the compound `Clc1ccc(Nc2nnc(Cc3ccncc3)c3ccccc23)cc1` [PTK787/ZK 222584], in series [2] (50 mg/kg trial, 4 wk, vs sham), the Mucosal thickening result is “moderated mucosal thickening”. Also, the Lymphatic vessel dilation result in series [2] (75 mg/kg dosage group, 4 wk, vs sham) is “moderated”. In series [2] (setting [5]), the “Angiogenesis (blood vessel number in mucosa)” value is reported as “reduced” and the Lymphatic vessel number entry was “reduced”. Further, in series [3] (50 mg/kg, 21 days, mean ± SEM (n)), the “ΔABR (dB) WT” value is on record as −0.6 ± 1.1 (8) dB. In addition, the “ΔABR (dB) WT” value in series [3] (75 mg/kg, 28 days, mean ± SEM (n)) is listed as 0.0 ± 0.9 (8) dB.

Regarding `CN(CCOc1ccc(CC2SC(=O)NC2=O)cc1)c1ccccn1` (stereo not shown) [Rosiglitazone], the “ΔABR (dB) Jbo/+ drug” value in series [1] (Jbo/+ mice, 20 mg/kg, 28 days, mean, SEM (n) printed in the row below) worked out at 9.7 dB. In series [3] (20 mg/kg, 28 days, mean, SEM (n) printed in the row below), the “ΔABR (dB) WT” value is recorded as 1.4 dB.

Consider `CCN(CC)CCNC(=O)c1c(C)[nH]c(/C=C2\C(=O)Nc3ccc(F)cc32)c1C` [SU-11248], for which the “Effect on hearing loss” value in series [1] (Junbo mice, 28 d treatment, vs sham (FIG. 6B)) is listed as “moderates hearing loss”.
